Laboratory results reported in patent US20130267533A1, “5HT1A AGONISTS FOR TREATMENT OF HIGH CHOLESTEROL” (FABRE-KRAMER PHARMACEUTICALS, INC., priority 2012, published 2013).
Structures can show the parent of a compound that is named as a salt. Where two headings read alike, the source gives them in different places.

Columns and labels:
subjects with anxiety = assay: Total cholesterol in random subset of 103 subjects from adatanserin study 790-210; format: in vivo, human
Text: Adatanserin is another drug with similar properties. The studies done in adatanserin were largely done on anxiety, not depression. It was not known if the cholesterol levels in subjects with anxiety are elevated. (In the small sample studied below, the levels are not elevated). One paper in subjects with panic disorder claims that paroxetine treatment elevated plasma cholesterol (Kim E J, YU B-H, Increased Cholesterol Levels After Paroxetine Treatment in Patients with panic Disorder. J Clinical Psychopharmacol 2005; 25:597-599). However, to see if adatanserin might also have cholesterol lowering properties, the inventors of the present invention examined a random subset of 103 subjects from study 790-210.

[1] = pre-clinical tests; cited from earlier work
depressed subjects = conditions: open label, cited from earlier work
[2] = system: subjects with Major Depression; assay: Non-fasting total cholesterol at baseline and 8 weeks in 10 clinical studies of Gepirone-ER, meta-analysis; format: in vivo, human; conditions: for cholesterol levels, SSRI vs placebo: paroxetine one study n=143 p=0.045, fluoxetine three studies n=295 p=0.014, FIG. 4
Experimental: In 10 clinical studies of the antidepressant effects of Gepirone-ER comprised of 2302 subjects with Major Depression safety measurements included non-fasting measurements of cholesterol at baseline and at 8 weeks (endpoint). A JMP-7 one way ANOVA of the data provided results for individual studies which were then analyzed by meta-analysis. […] So, analysis of the effect of gepirone on cholesterol levels in the 40-59 year range was conducted.

[3] = system: MDD subjects over or under 200 mg/dL cholesterol; assay: Gepirone-ER antidepressant efficacy (HAMD-17) by cholesterol level, 8 double-blind MDD studies; format: in vivo, human; conditions: for HAMD responders percent: responder = 50% decrease in HAMD-17
Text: The effects of cholesterol on gepirone-ER efficacy was investigated. […] As such, it was expected that the results for gepirone to be similar to that of Fava. […] Corresponding placebo values were generated as well.
The total population used was 10 times greater than the Fava Study addressed in the background section (Sonawalla S B, Papakostas G I, Petersen T J, Yeung A S, Smith M M, Sickinger A H, Gordon J, Israel J A, Tedlow J R, Lamon-Fava S, Fava M, Elevated cholesterol levels associated with nonresponse to fluoxetine treatment in major depressive disorder. Psychosomatics. 2002; 43:310-6). Using the cutoff value of 200 mg/dL, there were 1264 subjects above 200 mg/dL and 1225 subjects below. […] The respective average cholesterol levels were 234.3±29.7 and 169.9±21.2, similar to the Fava data.
The results there compared by t-test of odds ratio programs. The results for gepirone were examiner in 8 MDD studies. The low cholesterol group treated with gepirone-ER had 41.2% responders compared to the high cholesterol treated group 43.3% responders, a […] favoring the high cholesterol group (p=0.58)(Table 2). When the gepirone ER and placebo groups (Table 2) are compared, the high cholesterol gepirone treated group is 13.6% better than placebo (p=0.002), whereas the difference between the low cholesterol gepirone and placebo group is 0.5%, (p=0.602). However, the over 200 placebo group is 11% less than the under 200 placebo group (p=0.004).

[4] = Plasma levels of 3-OH gepirone after gepirone treatment; format: in vivo; conditions: animals and humans treated with gepirone
Text: 3-OH gepirone has the same receptor binding, therefore, it is theorized that 3-OH-gepirone accounts for at least some of the effect noted with gepirone.

[5] = system: post-synaptic receptors in the hippocampus; conditions: cited from earlier work

O=C(NCCN1CCN(c2ncccn2)CC1)C12CC3CC(CC(C3)C1)C2 [Adatanserin, N-[2-[4-(2-pyrimidinyl)-1-piperazinyl]ethyl]tricyclo[3.3.1.1^3,7]decane-1-carboxamide]
Difference in cholesterol change between adatanserin and placebo (subjects with anxiety; adatanserin n=76 vs placebo n=27, p=0.011): 15.22 mg/dL
Total Cholesterol after treatment, mean (SD) (subjects with anxiety; n=76, after treatment): 197.46 (44.1) mg/dL
Total Cholesterol at baseline, mean (SD) (subjects with anxiety; n=76, at baseline): 204.46 (46.4) mg/dL
Change in Total Cholesterol (subjects with anxiety; n=76, baseline to after treatment): -7.00 mg/dL

c1cnc(N2CCNCC2)nc1 [1-PP, 1-(2-pyrimidinyl)piperazine]
antidepressant-like characteristics [1]: did not exhibit antidepressant-like characteristics

CNCCC(Oc1ccc(C(F)(F)F)cc1)c1ccccc1 (centres unmarked) [fluoxetine]
response rate (50% decrease from baseline HAMD-17) (depressed subjects; cholesterol above 200 mg/dL): 46%
response rate (50% decrease from baseline HAMD-17) (depressed subjects; cholesterol below 200 mg/dL): 54%
cholesterol levels, SSRI vs placebo [2]: placebo statistically better then fluoxetine

Fc1ccc([C@@H]2CCNC[C@H]2COc2ccc3c(c2)OCO3)cc1 [paroxetine]
cholesterol levels, SSRI vs placebo [2]: placebo statistically better than paroxetine

CC1(C)CC(=O)N(CCCCN2CCN(c3ncccn3)CC2)C(=O)C1 [Gepirone, 4,4-dimethyl-1-[4-[-(2-pyrimidinyl)-1-piperazinyl]-butyl]-2,6-piperidinedione hydrochloride]
HAMD change from baseline Δ means ± SD ([3]; cholesterol over 200 mg/dL, n=344, p=0.001 vs placebo): −9.58 ± 7.2
HAMD responders percent ([3]; cholesterol over 200 mg/dL, n=344, p=0.002 vs placebo): 43.3%
HAMD change from baseline Δ means ± SD ([3]; cholesterol under 200 mg/dL, n=354, p=0.656 vs placebo): −9.48 ± 7.4
HAMD responders percent ([3]; cholesterol under 200 mg/dL, n=354, p=0.602 vs placebo): 41.2%
difference in responders vs placebo ([3]; high cholesterol group (over 200 mg/dL), p=0.002): 13.6%
HAMD change from baseline, difference in means vs placebo ([3]; high cholesterol group, p=0.001): −1.77 points
difference in responders vs placebo ([3]; low cholesterol group (under 200 mg/dL), p=0.602): 0.5%
HAMD change from baseline, standard difference in means vs placebo ([3]; low cholesterol group, p=0.656): −0.02 points
HAMD change from baseline, over vs. under Δ(Δ means) ([3]; over 200 vs under 200 mg/dL, p=0.856): 0.10
average drop in total cholesterol, meta-analysis ([2]; 10 studies, p=0.016, FIG. 6): 2.8 mg/dL
number of studies with lower total cholesterol levels ([2]; of 10 studies): 7
change in cholesterol levels ([2]; patients in the 40-59 year range, FIG. 7): -5 mg/dL

CC1(C)CC(=O)N(CCCCN2CCN(c3ncccn3)CC2)C(=O)C1O (centres unmarked) [3-OH gepirone]
plasma levels of metabolite relative to gepirone [4]: greater than that of gepirone
type of agonism at post-synaptic receptors [5]: full agonism
